Reference: patent US8394963B2, “Process for the preparation of esomeprazole magnesium dihydrate” (Cipla Limited, priority 2007, dated 2013)

Experiment: Solubility checked using 0.1 g of the sample at 25-30° C.
Type: physicochemical
Conditions: for Solubility (volume of solvent): 0.1 g of the sample at 25-30° C.
Text: Polymorphs of a compound differ in physical properties such as crystal structure, dissolution and particle size.

Solubility (volume of solvent) (Acetone) [mL]	Solubility (volume of solvent) (Ethyl acetate) [mL]	Solubility (volume of solvent) (Isopropyl acetate) [mL]	Solubility (volume of solvent) (Toluene) [mL]	Solubility, comparison of the polymorphic forms (Form II compared with Form I of thio intermediate (compound III))	SMILES
2.0	4.6	10.0	8.4	–	COc1ccc2[nH]c(SCc3ncc(C)c(OC)c3C)nc2c1 [Form I, 5-methoxy-2-[[(4-methoxy-3,5-dimethyl-2-pyridinyl)-methyl]thio]-1H-benzimidazole, reference compound]
4.6	12.0	13.0	15.0	less soluble than Form I	COc1ccc2[nH]c(SCc3ncc(C)c(OC)c3C)nc2c1 [Form II, 5-methoxy-2-[[(4-methoxy-3,5-dimethyl-2-pyridinyl)-methyl]thio]-1H-benzimidazole]
